Experimental data from patent publication US20120135989A1, “AZAINDOLE DERIVATIVE” (CRYSTALGENOMICS, INC., priority 2010, published 2012).

Target: T1, human Cdc7/human ASK conjugated protein (Homo sapiens, UniProt O00311)
T1 construct: purchased CARNA BIOSCIENCES
Experiment: Cdc7 protein kinase inhibitory action (Cdc7-ASK kinase activity, 32P-labeled MCM2)
Assay type: biochemical
Conditions: substrate mouse MCM2-4(his)-6-7(his) conjugated protein, 0.1 mM ATP, 30° C. for 45 minutes; read-out: Activity (uM) ELISA (IC50)
Description: Cdc7 protein kinase inhibitory action of the (di)azaindole derivatives shown in Table 4 was evaluated according to the following operations.
As a substrate for evaluating the enzymatic activity, mouse MCM2-4(his)-6-7 (his) conjugated protein was synthesized. First, the following genes were cloned into a pAcUW31 vector (Pharmingen).
Mouse MCM2 (Genbank/EMBL No. D86725);
N-His-mouse MCM4 (Genbank/EMBL No. D26089, a His6 tag was added to an N-terminal);
Mouse MCM6 (Genbank/EMBL No. D86726), and
N-His-mouse MCM7 (Genbank/EMBL No. D26091, a His6 tag was added to an N-terminal).
The Mouse MCM2 gene and the N-His-mouse MCM7 gene were inserted into the BamHI site and the EcoRI site of the pAcUW31 vector (Mom2-7 Vector), respectively. The mouse MCM6 gene and the N-His-mouse MCM4 gene were inserted into the BamHI site and the EcoRI site of the pAcUW31 vector (MGm-4-6 Vector), respectively. Then, in order to produce a recombinant mouse MCM2-7 (his) and mouse MCM4 (his)-6 Baculovirus, BaculoGold AoNPV Baculovirus DNA (BD/Pharmingen) and an Mcm2-7 Vector or an Mcm-4-6 Vector were cotransfected to SD insect cells. The obtained Mcm2-7 and Mom-4-6 virus were coinfected to Hi5 insect cells. Thereby, a mouse MCM2-4 (his)-6-7 (his) conjugated protein was obtained. Purified mouse MCM2-4 (his)-6-7 (his) conjugated protein (0.5 μg) was used as a substrate.
The substrate (mouse MCM2-4(his)-6-7(his) conjugated protein) (0.5 μg) and kinase enzyme (human Cdc7/human ASK conjugated protein, CARNA BIOSCIENCES) (0.1 μg) were mixed in a microtube. A kinase reaction buffer containing 0.1 μL of γ-^32P ATP (Perkin Elmer) was added as a tracer into the same microtube. The composition of the kinase buffer includes the followings.
40 mM HEPES-KOH buffer pH 7.6,
Furthermore, 0.5 μL of each of the test compounds ((di)azaindole derivatives 10 μM, 100 μM, and 1000 μM, respectively) was added and reacted at 30° C. for 45 minutes. After the reaction, the substrate was separated by SDS-PAGE method, and protein was stained by the silver staining method (2D-silver staining reagent H “Daiichi,” Daiichi Pure Chemicals Co., Ltd.).
The radioactivity of ^32P-labeled MCM2 protein was detected by autoradiography, and the radioactivity of the band of MCM2 protein was measured by a liquid scintillation counter (LSC-6100, ALOKA). As to the Cdc7-ASK kinase activity, the radioactivity at the time when the each of the test compounds was added was calculated in percent when the radioactivity at the time when DMSO (0.5 μL) was added instead of the test compound (0.5 μL) that had been added immediately before the reaction was made to be 100%. Based on the obtained results, IC 50 value of each test compound was calculated. IC50 with respect to Cdc7-ASK kinase of the main (di)azaindole derivatives shown in Table 5 was about 0.001 μM to 0.008 μM.

T1 sequence (O00311 whole entry): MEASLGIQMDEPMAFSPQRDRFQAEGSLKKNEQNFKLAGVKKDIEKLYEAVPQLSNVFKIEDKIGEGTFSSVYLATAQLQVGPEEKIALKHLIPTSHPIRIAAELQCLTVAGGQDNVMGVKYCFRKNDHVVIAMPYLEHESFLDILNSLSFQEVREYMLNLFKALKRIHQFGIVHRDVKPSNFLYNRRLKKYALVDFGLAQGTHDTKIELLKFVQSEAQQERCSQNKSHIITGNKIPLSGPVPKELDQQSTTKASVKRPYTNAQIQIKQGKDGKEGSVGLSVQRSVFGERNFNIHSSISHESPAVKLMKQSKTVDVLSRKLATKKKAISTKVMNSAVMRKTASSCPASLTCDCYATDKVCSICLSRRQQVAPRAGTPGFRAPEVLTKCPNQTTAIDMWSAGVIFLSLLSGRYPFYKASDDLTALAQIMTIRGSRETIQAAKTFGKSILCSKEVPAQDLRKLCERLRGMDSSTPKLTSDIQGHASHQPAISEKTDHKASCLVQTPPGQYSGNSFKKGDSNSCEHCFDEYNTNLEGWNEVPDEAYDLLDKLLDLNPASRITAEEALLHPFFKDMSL
T1 sequence (Q9UBU7 whole entry partner): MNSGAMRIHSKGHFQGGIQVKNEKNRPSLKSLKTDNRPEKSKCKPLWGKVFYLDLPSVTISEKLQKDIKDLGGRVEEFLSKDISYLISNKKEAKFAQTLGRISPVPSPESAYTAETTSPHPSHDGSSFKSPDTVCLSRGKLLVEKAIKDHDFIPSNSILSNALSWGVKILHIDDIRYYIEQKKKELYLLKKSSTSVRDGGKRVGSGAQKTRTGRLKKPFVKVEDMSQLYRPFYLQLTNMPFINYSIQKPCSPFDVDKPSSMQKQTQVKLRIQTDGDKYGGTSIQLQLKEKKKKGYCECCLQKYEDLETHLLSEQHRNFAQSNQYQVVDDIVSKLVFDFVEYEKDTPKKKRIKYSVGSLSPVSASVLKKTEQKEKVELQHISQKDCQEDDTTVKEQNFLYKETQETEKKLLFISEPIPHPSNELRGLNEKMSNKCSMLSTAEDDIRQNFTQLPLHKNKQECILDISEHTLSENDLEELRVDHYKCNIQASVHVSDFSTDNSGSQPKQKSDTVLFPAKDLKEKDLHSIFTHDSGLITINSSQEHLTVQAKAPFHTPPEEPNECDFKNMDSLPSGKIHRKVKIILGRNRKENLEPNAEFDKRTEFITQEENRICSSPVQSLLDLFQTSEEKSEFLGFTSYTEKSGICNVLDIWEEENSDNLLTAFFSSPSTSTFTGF

Compound	IC50
CN1CCC(Oc2ccc(/N=C3/NC(=O)/C(=C/c4c[nH]c5ncccc45)S3)c(C(F)(F)F)c2)CC1 [Compound 23, (2Z,5Z)-2-{4-(1-methyl-piperidin-4-yl)oxy-2-trifluoromethylphenyl}azamethylene-5-(1H-pyrrolo[2,3-b]pyridm-3-yl)methylene-1,3-thiazolidin-4-one]	0.003 µM
O=C1N/C(=N/c2ccc(C(=O)O)cc2)S/C1=C\c1c[nH]c2ncccc12 [Compound 4, (2Z,5Z)-2-(4-carboxyphenyl)azamethylene-5-(1H-pyrrolo[2,3-b]pyridin-3-yl)methylene-1,3-thiazolidin-4-one]	0.018 µM
Cc1cc(OCCN2CCN(C)CC2)ccc1/N=C1/NC(=O)/C(=C/c2c[nH]c3ncccc23)S1 [Compound 7, (2Z,5Z)-2-[4-{2-(4-methylpiperazin-1-yl)}ethoxy-2-methylphenyl]azamethylene-5-(1H-pyrrolo[2,3-b]pyridin-3-yl)methylene-1,3-thiazolidin-4-one]	0.0021 µM
Cc1cc(OCCN(C)C)ccc1/N=C1/NC(=O)/C(=C/c2c[nH]c3ncncc23)S1 [Compound 11, (2Z,5Z)-2-{4-(2-dimethylamino)ethoxy-2-methylphenyl}azamethylene-5-(7H-pyrrolo[2,3-d]pyrimidin-5-yl)methylene-1,3-thiazolidin-4-one]	0.005 µM
Cc1cc(OC2CCN(C)C2)ccc1/N=C1/NC(=O)/C(=C/c2c[nH]c3ncccc23)S1 (centres unmarked) [Compound 6, (2Z,5Z)-2-{4-(1-methylpyrrolidin-3-yl)oxy-2-methylphenyl}azamethylene-5-(1H-pyrrolo[2,3-b]pyridin-3-yl)methylene-1,3-thiazolidin-4-one]	0.003 µM
Cc1cc(OC2CCN(C)CC2)ccc1/N=C1/NC(=O)/C(=C/c2c[nH]c3ncncc23)S1 [Compound 16, (2Z,5Z)-2-{4-(1-methyl-piperidin-4-yl)oxy-2-methylphenyl}azamethylene-5-(7H-pyrrolo[2,3-d]pyrimidin-5-yl)methylene-1,3-thiazolidin-4-one]	0.006 µM
CN(C)CCOc1ccc(/N=C2/NC(=O)/C(=C/c3c[nH]c4ncncc34)S2)c(C(F)(F)F)c1 [Compound 19, (2Z,5Z)-2-{4-(2-dimethylamino)ethoxy-2-trifluoromethylphenyl}azamethylene-5-(7H-pyrrolo[2,3-d]pyrimidin-5-yl)methylene-1,3-thiazolidin-4-one]	0.006 µM
CN(C)CCOc1ccc(/N=C2/NC(=O)/C(=C/c3c[nH]c4ncccc34)S2)c(C(F)(F)F)c1 [Compound 13, (2Z,5Z)-2-{4-(2-dimethylamino)ethoxy-2-trifluoromethylphenyl}azamethylene-5-(1H-pyrrolo[2,3-b]pyridin-3-yl)methylene-1,3-thiazolidin-4-one]	0.003 µM
CN1CCC(Oc2ccc(/N=C3/NC(=O)/C(=C/c4c[nH]c5ncncc45)S3)c(C(F)(F)F)c2)C1 (centres unmarked) [Compound 20, (2Z,5Z)-2-{4-(1-methylpyrrolidin-3-yl)oxy-2-trifluoromethylphenyl}azamethylene-5-(7H-pyrrolo[2,3-d]pyrimidin-5-yl)methylene-1,3-thiazolidin-4-one]	0.007 µM
Cc1cc(OC2CCN(C)C2)ccc1/N=C1/NC(=O)/C(=C/c2c[nH]c3ncncc23)S1 (centres unmarked) [Compound 15, (2Z,5Z)-2-{4-(1-methylpyrrolidin-3-yl)oxy-2-methylphenyl}azamethylene-5-(7H-pyrrolo[2,3-d]pyrimidin-5-yl)methylene-1,3-thiazolidin-4-one]	0.008 µM
CN1CCC(Oc2ccc(/N=C3/NC(=O)/C(=C/c4c[nH]c5ncccc45)S3)c(C(F)(F)F)c2)C1 (centres unmarked) [Compound 14, (2Z,5Z)-2-{4-(1-methylpyrrolidin-3-yl)oxy-2-trifluoromethylphenyl}azamethylene-5-(1H-pyrrolo[2,3-b]pyridin-3-yl)methylene-1,3-thiazolidin-4-one]	0.002 µM
CN1CCC(Oc2ccc(/N=C3/NC(=O)/C(=C/c4c[nH]c5ncncc45)S3)c(Cl)c2)CC1 [Compound 21, (2Z,5Z)-2-{2-chloro-4-(1-methyl-piperidin-4-yl)oxyphenyl}azamethylene-5-(7H-pyrrolo[2,3-d]pyrimidin-5-yl)methylene-1,3-thiazolidin-4-one]	0.003 µM

The remaining lines, values ahead:

IC50	Compound
0.002 µM	CN(C)CCOc1ccc(/N=C2/NC(=O)/C(=C/c3c[nH]c4ncccc34)S2)c(Cl)c1 [Compound 10, (2Z,5Z)-2-{2-chloro-4-(2-dimethylamino)ethoxyphenyl}azamethylene-5-(1H-pyrrolo[2,3-b]pyridin-3-yl)methylene-1,3-thiazolidin-4-one]
0.002 µM	CN1CCC(Oc2ccc(/N=C3/NC(=O)/C(=C/c4c[nH]c5ncncc45)S3)c(Cl)c2)C1 (centres unmarked) [Compound 18, (2Z,5Z)2-{2-chloro-4-(1-methylpyrrolidin-3-yl)oxyphenyl}azamethylene-5-(7H-pyrrolo[2,3-d]pyrimidin-5-yl)methylene-1,3-thiazolidin-4-one]
0.002 µM	CN(C)CCOc1ccc(/N=C2/NC(=O)/C(=C/c3c[nH]c4ncncc34)S2)c(Cl)c1 [Compound 17, (2Z,5Z)-2-{2-chloro-4-(2-dimethylamino)ethoxyphenyl}azamethylene-5-(7H-pyrrolo[2,3-d]pyrimidin-5-yl)methylene-1,3-thiazolidin-4-one]
0.0019 µM	Cc1cc(OCCN(C)C)ccc1/N=C1/NC(=O)/C(=C/c2c[nH]c3ncccc23)S1 [Compound 5, (2Z,5Z)-2-{4-(2-dimethylamino)ethoxy-2-methylphenyl}azamethylene-5-(1H-pyrrolo[2,3-b]pyridin-3-yl)methylene-1,3-thiazolidin-4-one]
0.0014 µM	Cc1cc(O)ccc1/N=C1/NC(=O)/C(=C/c2c[nH]c3ncccc23)S1 [Compound 3, (2Z,5Z)-2-(4-hydroxy-2-methylphenyl)azamethylene-5-(1H-pyrrolo[2,3-b]pyridin-3-yl)methylene-1,3-thiazolidin-4-one]
0.0012 µM	COc1ccc(/N=C2/NC(=O)/C(=C/c3c[nH]c4ncccc34)S2)c(C)c1 [Compound 1, (2Z,5Z)-2-(4-methoxy-2-methylphenyl)azamethylene-5-(1H-pyrrolo[2,3-b]pyridin-3-yl)methylene-1,3-thiazolidin-4-one]
0.001 µM	CN1CCC(Oc2ccc(/N=C3/NC(=O)/C(=C/c4c[nH]c5ncccc45)S3)c(Cl)c2)C1 (centres unmarked) [Compound 12, (2Z,5Z)-2-{2-chloro-4-(1-methylpyrrolidin-3-yl)oxyphenyl}azamethylene-5-(1H-pyrrolo[2,3-b]pyridin-3-yl)methylene-1,3-thiazolidin-4-one]
0.001 µM	CN1CCC(Oc2ccc(/N=C3/NC(=O)/C(=C/c4c[nH]c5ncccc45)S3)c(Cl)c2)CC1 [Compound 22, (2Z,5Z)-2-{2-chloro-4-(1-methyl-piperidin-4-yl)oxyphenyl}azamethylene-5-(1H-pyrrolo[2,3-b]pyridin-3-yl)methylene-1,3-thiazolidin-4-one]
0.001 µM	Cc1ccc(/N=C2/NC(=O)/C(=C/c3c[nH]c4ncccc34)S2)c(C)c1 [Compound 2, (2Z,5Z)-2-(2,4-dimethylphenyl)azamethylene-5-(1H-pyrrolo[2,3-b]pyridin-3-yl)methylene-1,3-thiazolidin-4-one]

Target: T1, human Cdc7/human ASK conjugated protein
Experiment: as above
Assay type: biochemical
Conditions: substrate mouse MCM2-4(his)-6-7(his) conjugated protein, 0.1 mM ATP, 30° C. for 45 minutes; read-out: Activity (uM) ELISA (IC50)
Remark: another data set of the same source

IC50	Compound
0.0011 µM	(2Z,5Z)-2-{4-(1-methyl-piperidin-4-yl)oxy-2-methylphenyl}azamethylene-5-(1H-pyrrolo[2,3-b]pyridin-3-yl)methylene-1,3-thiazolidin-4-one [Compound 8]
0.0017 µM	Cc1cc(OCCN2CCOCC2)ccc1/N=C1/NC(=O)/C(=C/c2c[nH]c3ncccc23)S1 [Compound 9, (2Z,5Z)-2-{4-(2-morpholino)ethoxy-2-metlhylphenyl}azamethylene-5-(1H-pyrrolo[2,3-b]pyridin-3-yl)methylene-1,3-thiazolidin-4-one]
